{"source": "paper PMC4840272", "about": "(Neoplasia (New York, N.Y.), 2016)", "origin": "cited, not measured here", "details": "cited from earlier work"}
{"compound": "Cn1c(CCCC(=O)O)nc2cc(N(CCCl)CCCl)ccc21", "note": "[bendamustine]", "values": [{"measurement": "elimination t1/2", "value": "approximately 40 minutes"}]}
